Measurements from paper PMC11847724 (Neoplasia (New York, N.Y.), 2025).

Assays:
FAK = settings: preclinical studies ref 9, 10; cited from earlier work
[1] = Plasma pharmacokinetics of ESK-440 and metabolite CEP-38901; format: in vivo, human

CNC(=O)c1ccccc1Nc1nc(Nc2ccc3c(c2OC)CCC[C@H](N2CCN(CCO)CC2)C3)ncc1Cl [ESK-440]
potency (FAK): low nanomolar
Robs (observed accumulation ratio = AUCτ on day 15/AUC0-24 on day 1) ([1]; 25 mg/day (N = 3)): 3.3 (0.76)
Robs (observed accumulation ratio = AUCτ on day 15/AUC0-24 on day 1) ([1]; 50 mg/day (N = 3)): 2.2 (1.11)
Robs (observed accumulation ratio = AUCτ on day 15/AUC0-24 on day 1) ([1]; 100 mg/day (N = 3)): 4.2 (3.47)
Robs (observed accumulation ratio = AUCτ on day 15/AUC0-24 on day 1) ([1]; 150 mg/day (N = 3)): 3.1 (0.17)
Robs (observed accumulation ratio = AUCτ on day 15/AUC0-24 on day 1) ([1]; 250 mg/day (N = 4)): 2.9 (0.81)
Robs (observed accumulation ratio = AUCτ on day 15/AUC0-24 on day 1) ([1]; 350 mg/day (N = 4)): 3.3 (0.63)
Robs (observed accumulation ratio = AUCτ on day 15/AUC0-24 on day 1) ([1]; 500 mg/day (N = 4)): 2.4 (0.43)
Robs (observed accumulation ratio = AUCτ on day 15/AUC0-24 on day 1) ([1]; 700 mg/day (N = 5)): 2.2 (0.74)
dose dependence of Cmax and AUC0-24 ([1]; day 1 and day 15, up to 500 mg/day): dose-proportional
half-life ([1]; human, plasma, oral): 564 to 1250 min
AUC ([1]; human, plasma, oral, 25 mg/day): 666 ng·h/mL
AUC(0-t) ([1]; human, plasma, oral, 25 mg/day, AUC0-24, Day 1, 25 mg/day (N = 3)): 222 ng·h/mL
AUC(0-t) ([1]; human, plasma, oral, 25 mg/day, AUC0-t, Day 1, 25 mg/day (N = 3)): 223 ng·h/mL
AUC(0-t) ([1]; human, plasma, oral, 25 mg/day, AUC0-t, Day 15, 25 mg/day (N = 3)): 666 ng·h/mL
Cmax ([1]; human, plasma, oral, 25 mg/day, Day 1, 25 mg/day (N = 3)): 20.7 ng/mL
Cmax ([1]; human, plasma, oral, 25 mg/day, Day 15, 25 mg/day (N = 3)): 36.7 ng/mL
Tmax ([1]; human, plasma, oral, 25 mg/day, tmax, Day 1, 25 mg/day (N = 3), median (range)): 3 h
Tmax ([1]; human, plasma, oral, 25 mg/day, tmax, Day 15, 25 mg/day (N = 3), median (range)): 3 h
AUC ([1]; human, plasma, oral, 50 mg/day): 995 ng·h/mL
AUC(0-t) ([1]; human, plasma, oral, 50 mg/day, AUC0-24, Day 1, 50 mg/day (N = 3)): 508 ng·h/mL
AUC(0-t) ([1]; human, plasma, oral, 50 mg/day, AUC0-t, Day 1, 50 mg/day (N = 3)): 517 ng·h/mL
AUC(0-t) ([1]; human, plasma, oral, 50 mg/day, AUC0-t, Day 15, 50 mg/day (N = 3)): 1020 ng·h/mL
Cmax ([1]; human, plasma, oral, 50 mg/day, Day 1, 50 mg/day (N = 3)): 38.1 ng/mL
Cmax ([1]; human, plasma, oral, 50 mg/day, Day 15, 50 mg/day (N = 3)): 55.6 ng/mL
Tmax ([1]; human, plasma, oral, 50 mg/day, tmax, Day 1, 50 mg/day (N = 3), median (range)): 3 h
Tmax ([1]; human, plasma, oral, 50 mg/day, tmax, Day 15, 50 mg/day (N = 3), median (range)): 3.9 h
AUC ([1]; human, plasma, oral, 100 mg/day): 5420 ng·h/mL
AUC(0-t) ([1]; human, plasma, oral, 100 mg/day, AUC0-24, Day 1, 100 mg/day (N = 3)): 1480 ng·h/mL
AUC(0-t) ([1]; human, plasma, oral, 100 mg/day, AUC0-t, Day 1, 100 mg/day (N = 3)): 1540 ng·h/mL
AUC(0-t) ([1]; human, plasma, oral, 100 mg/day, AUC0-t, Day 15, 100 mg/day (N = 3)): 5660 ng·h/mL
Cmax ([1]; human, plasma, oral, 100 mg/day, Day 1, 100 mg/day (N = 3)): 97.3 ng/mL
Cmax ([1]; human, plasma, oral, 100 mg/day, Day 15, 100 mg/day (N = 3)): 273 ng/mL
Tmax ([1]; human, plasma, oral, 100 mg/day, tmax, Day 1, 100 mg/day (N = 3), median (range)): 2 h
Tmax ([1]; human, plasma, oral, 100 mg/day, tmax, Day 15, 100 mg/day (N = 3), median (range)): 4 h
AUC ([1]; human, plasma, oral, 150 mg/day): 4980 ng·h/mL
AUC(0-t) ([1]; human, plasma, oral, 150 mg/day, AUC0-24, Day 1, 150 mg/day (N = 3)): 1580 ng·h/mL
AUC(0-t) ([1]; human, plasma, oral, 150 mg/day, AUC0-t, Day 1, 150 mg/day (N = 3)): 1560 ng·h/mL
AUC(0-t) ([1]; human, plasma, oral, 150 mg/day, AUC0-t, Day 15, 150 mg/day (N = 3)): 4950 ng·h/mL
Cmax ([1]; human, plasma, oral, 150 mg/day, Day 1, 150 mg/day (N = 3)): 128 ng/mL
Cmax ([1]; human, plasma, oral, 150 mg/day, Day 15, 150 mg/day (N = 3)): 321 ng/mL
Tmax ([1]; human, plasma, oral, 150 mg/day, tmax, Day 1, 150 mg/day (N = 3), median (range)): 3.1 h
Tmax ([1]; human, plasma, oral, 150 mg/day, tmax, Day 15, 150 mg/day (N = 3), median (range)): 2.1 h
AUC ([1]; human, plasma, oral, 250 mg/day): 13300 ng·h/mL
AUC(0-t) ([1]; human, plasma, oral, 250 mg/day, AUC0-24, Day 1, 250 mg/day (N = 4)): 4740 ng·h/mL
AUC(0-t) ([1]; human, plasma, oral, 250 mg/day, AUC0-t, Day 1, 250 mg/day (N = 4)): 4850 ng·h/mL
AUC(0-t) ([1]; human, plasma, oral, 250 mg/day, AUC0-t, Day 15, 250 mg/day (N = 4)): 14200 ng·h/mL
Cmax ([1]; human, plasma, oral, 250 mg/day, Day 1, 250 mg/day (N = 4)): 435 ng/mL
Cmax ([1]; human, plasma, oral, 250 mg/day, Day 15, 250 mg/day (N = 4)): 732 ng/mL
Tmax ([1]; human, plasma, oral, 250 mg/day, tmax, Day 1, 250 mg/day (N = 4), median (range)): 3.5 h
Tmax ([1]; human, plasma, oral, 250 mg/day, tmax, Day 15, 250 mg/day (N = 4), median (range)): 3.5 h
AUC ([1]; human, plasma, oral, 350 mg/day): 16800 ng·h/mL
AUC(0-t) ([1]; human, plasma, oral, 350 mg/day, AUC0-24, Day 1, 350 mg/day (N = 4)): 5180 ng·h/mL
AUC(0-t) ([1]; human, plasma, oral, 350 mg/day, AUC0-t, Day 1, 350 mg/day (N = 4)): 5320 ng·h/mL
AUC(0-t) ([1]; human, plasma, oral, 350 mg/day, AUC0-t, Day 15, 350 mg/day (N = 4)): 17900 ng·h/mL
Cmax ([1]; human, plasma, oral, 350 mg/day, Day 1, 350 mg/day (N = 4)): 334 ng/mL
Cmax ([1]; human, plasma, oral, 350 mg/day, Day 15, 350 mg/day (N = 4)): 869 ng/mL
Tmax ([1]; human, plasma, oral, 350 mg/day, tmax, Day 1, 350 mg/day (N = 4), median (range)): 5 h
Tmax ([1]; human, plasma, oral, 350 mg/day, tmax, Day 15, 350 mg/day (N = 4), median (range)): 4 h
AUC ([1]; human, plasma, oral, 500 mg/day): 36500 ng·h/mL
AUC(0-t) ([1]; human, plasma, oral, 500 mg/day, AUC0-24, Day 1, 500 mg/day (N = 5)): 17700 ng·h/mL
AUC(0-t) ([1]; human, plasma, oral, 500 mg/day, AUC0-t, Day 1, 500 mg/day (N = 5)): 17800 ng·h/mL
AUC(0-t) ([1]; human, plasma, oral, 500 mg/day, AUC0-t, Day 15, 500 mg/day (N = 4)): 37600 ng·h/mL
Cmax ([1]; human, plasma, oral, 500 mg/day, Day 1, 500 mg/day (N = 5)): 1160 ng/mL
Cmax ([1]; human, plasma, oral, 500 mg/day, Day 15, 500 mg/day (N = 4)): 1910 ng/mL
Tmax ([1]; human, plasma, oral, 500 mg/day, tmax, Day 1, 500 mg/day (N = 5), median (range)): 4.1 h
Tmax ([1]; human, plasma, oral, 500 mg/day, tmax, Day 15, 500 mg/day (N = 4), median (range)): 6.8 h
AUC ([1]; human, plasma, oral, 700 mg/day): 25700 ng·h/mL
AUC(0-t) ([1]; human, plasma, oral, 700 mg/day, AUC0-24, Day 1, 700 mg/day (N = 5)): 11300 ng·h/mL
AUC(0-t) ([1]; human, plasma, oral, 700 mg/day, AUC0-t, Day 1, 700 mg/day (N = 5)): 11500 ng·h/mL
AUC(0-t) ([1]; human, plasma, oral, 700 mg/day, AUC0-t, Day 15, 700 mg/day (N = 5)): 25900 ng·h/mL
Cmax ([1]; human, plasma, oral, 700 mg/day, Day 1, 700 mg/day (N = 5)): 839 ng/mL
Cmax ([1]; human, plasma, oral, 700 mg/day, Day 15, 700 mg/day (N = 5)): 1310 ng/mL
Tmax ([1]; human, plasma, oral, 700 mg/day, tmax, Day 1, 700 mg/day (N = 5), median (range)): 4 h
Tmax ([1]; human, plasma, oral, 700 mg/day, tmax, Day 15, 700 mg/day (N = 5), median (range)): 6.1 h
Tmax ([1]; human, plasma, oral, median tmax, range across dose levels, day 1): 2 to 5 h
Tmax ([1]; human, plasma, oral, median tmax, range across dose levels, day 15): 2.1 to 6.8 h
